Columns and labels:
[1] = tested on: lentiviral vectors pseudotyped with the SARS-CoV-2 Spike protein (CoV-2 LV); assay: microbe, parasite or virus in culture; assay type: cell-based
VSVg pseudotyped LV = assay type: cell-based
[2] = MTT cytotoxicity (CC50) in 293-ACE2 cells; assay type: cell-based; conditions: human, four-parameter sigmoidal fit, unit inferred
Procedure: (§1) MTT cell viability assay was performed following furnisher protocols. Cells were seeded at the density of 20,000 cells/well in a 96 well plate containing 100 μL complete DMEM (Gibco, USA) supplemented with 10% FBS (Gibco, USA) and 1% Penstrep (Gibco, USA). Cells were incubated for 12 hours at 37° C. in humidified 5% CO2 incubator for adherence. After 12-hour incubation, the media was replaced with fresh media, and cells were treated with compounds. Untreated cells were considered as negative control, DMSO treated cells were considered as the vehicles. After the treatment, cells were incubated at 37° C. in humidified 5% CO2 incubator. 48-hour post-treatment, 20 μL of MTT substrate (5 mg/mL) was added in each well and incubated for 4 additional hours at 37° C. in the dark. The media was then carefully removed, and 492 nm absorbance was measured.

[3] = MTT cytotoxicity (CC50) in A549-ACE2 cells; assay type: cell-based; conditions: human, A 549-ACE2 cells, four-parameter sigmoidal fit, unit inferred
Procedure: as §1

[4] = MTT cytotoxicity (CC50) in Calu3 cells; assay type: cell-based; conditions: human, four-parameter sigmoidal fit, unit inferred
Procedure: as §1

[5] = tested on: SARS-CoV-2 reference strain; assay: SARS-CoV-2 replication in A549-ACE2 cells (viral genome copies, RT-qPCR); assay type: cell-based
[6] = tested on: SARS-CoV-2 reference strain; assay: SARS-CoV-2 replication in Calu3 cells (viral genome copies, RT-qPCR); assay type: cell-based
SARS-CoV-2 = SARS-CoV-2 inhibition summarised over all the cell lines; assay type: cell-based; conditions: Severe acute respiratory syndrome coronavirus 2
[7] = tested on: HEK-293T, A549, Calu3 and Caco2 cell lines

| SMILES | decrease of the viral infectivity (CoV-2 LVs) [1] [%] | IC50 ([1]; Severe acute respiratory syndrome coronavirus 2, 293-ACE2 cells, apparent IC50, unit inferred) [nM] | effect on the VSVg LVs infectivity (VSVg pseudotyped LV) | CC50 at 48 h [2] [µM] | CC50 at 48 h [3] [µM] | CC50 at 48 h [4] [µM] | comparative efficiency in inhibiting the SARS-CoV-2 replication [5] | IC50 ([5]; Severe acute respiratory syndrome coronavirus 2, A549-ACE2, A 549-ACE2 cells, apparent IC50, unit inferred) [nM] | IC50 ([6]; Severe acute respiratory syndrome coronavirus 2, Calu-3, SARS-CoV-2 reference strain, 24 hours, read-out: concentration giving 50% inhibition of the viral replication) [nM] | IC50 ([6]; Severe acute respiratory syndrome coronavirus 2, Calu-3, apparent IC50, unit inferred, read-out: IC50) [nM] | inhibition at 1 µM (SARS-CoV-2; at 1 μM, pulmonary A549-ACE2 and Calu3 cells, read-out: inhibition of virus replication) [%] | IC50 (SARS-CoV-2; read-out: IC50 among all the cell lines) [nM] | cytotoxicity in various cell lines ([7]; various cell lines, no concentration stated) | cytotoxicity (MTT assay) ([7]; within the 0-50 μM range, HEK-293T, A549, Calu3 and Caco2) |
| --- | --- | --- | --- | --- | --- | --- | --- | --- | --- | --- | --- | --- | --- | --- |
| O=S(=O)(c1ccccc1)n1c(-c2cncc(-c3cc4cc(OCc5ccccc5)ccc4n3S(=O)(=O)c3ccccc3)c2)cc2cc(OCc3ccccc3)ccc21 [AB-00011778] | 40 to 80 | 1000 | without significant effect | > 50 | > 30 | > 30 | more efficient than the Ritonavir molecule | 250 | ~1000 | 1000 | 40 to 60 | 250 to 5000 | without showing significant cyto-toxicity | no or poor cytotoxicity |
| CC(C)c1nc(CN(C)C(=O)N[C@H](C(=O)N[C@@H](Cc2ccccc2)C[C@H](O)[C@H](Cc2ccccc2)NC(=O)OCc2cncs2)C(C)C)cs1 [Ritonavir, reference compound] |  |  |  |  |  |  | AB-00011778 was more efficient than the Ritonavir molecule |  |  |  |  |  |  |  |

Reference: patent publication US20260158015A1 (Universite De Bordeaux, priority 2021, published 2026)
